pEC50: −log10 of the molar value. Several values for one entry are separate records, joined by “and”; a condition that tells them apart may be missing. Identical values can stand only once.

For series [1] the following is noted: single large doses; cited from earlier work.
For series [2], the system named is tracheal organ cultures obtained from vitamin A deficient hamsters. Nature of the series: tissue or blood. Type of series: cell-based, hamster. From the text:
An evaluation of the anticancer properties of the heteroarotinoids was made via the standard hamster tracheal organ culture bioassay (see D. L. Newton, W. R. Henderson, and M. B. Sporn in Structure-Activity Relationships of Retinoids, National Cancer Institute, Revised Edition, Feb. 26, 1980; and D. L. Newton, W. R. Henderson, and M. B. Sporn, Cancer Research, 40, 3413 [1980]). The assay involves the ability of a test compound in vitro to reverse keratinization in tracheal organ cultures obtained from vitamin A deficient hamsters. The relationship of vitamin A deficient epithelial tissues and precancerous lesions is well known (see C. E. Orfanos, Retinoids-Advances in Basic Research and Therapy, Springer-Verlag, New York, 1981). For example, the addition of retinoids can reverse the anaplastic epithelial lesions induced in prostate glands by chemical carcinogens (see D. P. Chopra and L. J. Wilkoff, Proc. Am Assoc. Cancer Research, 16, 35 (1975); and I. Lasnitzki, British Journal of Cancer, 9, 434 [1955]). The basic procedure for the bioassay involving the vitamin A deficient hamster tracheal organ culture is presented below with the results obtained for some of the compositions.
The harvested tracheas were cultured in a serum-free medium and were gassed with 50% O2, 45% N2, and 5% CO2. The serum-free culture consists of CMRL Medium 1066 with crystalline bovine insulin (1.0 μg/mL), hydrocortisone hemisuccinate (0.1 μg/mL), glutamine (2 mM), pencillin (100 inits/mL), and streptomycin (100 μg/mL). The cultures were incubated for 3 days at 35°-36° C. After incubation in the retinoid-free medium, some of the tracheas were harvested. Most of the specimens had significant squamous metaplasia. The remaining cultures were divided into 3 groups. The first group was treated with the experimental heteroarotinoid in spectrograde dimethyl sulfoxide (DMSO) at concentrations of 10^-8 M, 10^-9 M, and 10^-10 M (final concentration of DMSO in culture medium was 0.1%). […] A final culture was prepared with only DMSO present.
The culture medium was changed three times per week for 10 days. At the end of that time, all tracheas were harvested and fixed in a 4% (or sometimes 10%) formaldehyde-1% glutaraldehyde solution. The material was then embedded in paraffin and cross-sections of the tracheas were examined under a microscope for the presence of keratin or keratohyaline granules. A synthetic retinoid was judged as having good anticancer activity if neither keratin nor keratohyaline granules were present or if only keratohyaline granules were […]. […] Sloughing of the cells in the culture studies was common with the toxic all trans-retinotic acid but was not observed with the heteroarotinoids in this work.
^a ED50 (M) is the dose for reversal of keratinization in
epithelium of 50% of retinoiddeficient hamster tracheas in organ culture.

The test system is the same in series [3]. The settings on record: value stated for the standard in the method; read-out: ED50 (the source's name); cited from earlier work.
Series [4] deals with ornithine decarboxylase (ODC). The experiment in a line: suppression of TPA induced ornithine decarboxylase (ODC) in mouse skin. Type of series: in vivo. The method, then:
In the ODC assay, either 13-cis-retinoic acid or trans-retinoic acid was employed. The following Table summarizes the result of the ODC assays.
In the screening tests of the Table, the selected retinoids in 0.2 ml of acetone were applied 1 hour before the application of 10 nmole of TPA to the shaved backs of mice; the mice where then sacrificed for ODC assay 5 hours after TPA treatment. Epidermus was separated, homogenized, and centrifuged at 30,000×g. Soluble epidermal ODC activity was assayed. The retinoids were evaluated in three independent experiments (3 groups of mice with 3 mice per group) and the results from the experiments were normalized (% inhibition) for comparison. […] Which standard is used appears to be relatively unimportant for determining activity in the assay, but the data presented in the Table identifies the standard for sake of clarity and accuracy of presentation. Thus, the presence of the heteroatom in these arotinoids has not eliminated biological activity. […] Consequently, the nature of the terminus group is also important.

[5] abbreviates: 34 nmol retinoid + TPA, third experiment (standard trans-retinoic acid).

Regarding `CC1=C(/C=C/C(C)=C/C=C/C(C)=C/C(=O)O)C(C)(C)CCC1` [trans-retinoic acid, all trans-retinoic acid, reference compound], the acute toxicity result in series [1] is listed as “acutely toxic in single large doses”. Besides, the “Sloughing of the cells in the culture studies” value in series [2] is reported as “common”. Also, the “% Active” value in series [2] (10^-11 M) was 50.0% and 41.7% and 53.8%; in series [2] (10^-12 M) it was 16.7% and 33.3% and 23.1%; in series [2] (concentration printed 11^-11 M), 50.0%; in series [2] (concentration printed 12^-12 M), 23.1%. Besides, in series [3], the pEC50 is 11.00. Further, the “% of Inhibition as Compared to Control” value in series [4] (setting [5]) amounted to 81%. Further, the “ODC Activity” value in series [4] (setting [5]) is 1.0 ± 0.1 nmol CO2 /60 min/mg protein. In series [4] (trans-retinoic acid as a standard), the “relative activities in suppressing TPA induction of ODC” value is reported as “trans-retinoic acid >24>35>36”.

The values above are taken from patent US4826984A, “Heteroarotinoid compounds as anticancer agents” (The Board of Regents for the Oklahoma Agricultural and …, priority 1987, dated 1989).
